Test results taken from patent US6974801B2, “Inhibitors and methods of use thereof” (The Trustees of Dartmounth College, priority 2002, dated 2005).
pIC50: −log10 of the molar value. Where two headings read alike, the source gives them in different places. One block for each compound: values may come before it.

Columns and labels:
[1] = system: NO production induced by INF-γ in mouse macrophages; assay: Inhibition of NO production induced by IFN-γ in mouse macrophages (Griess reaction); type: cell-based
Experimental: The procedure for determining IC50 on NO production induced by INF-γ in mouse macrophages is as follows. Macrophages were harvested from female mice injected intraperitoneally four days previously with 4% thioglycollate. These cells were seeded in 96-well tissue culture plates and incubated with 4 ng/mL INF-γ in the presence or absence of inhibitory test compounds. After 48 hours NO production, measured as […] by the Griess reaction, was determined. This method is described fully by Ding et al. (1990) and Bogdan and Ding, (1992).

[2] = system: NO production induced by INF-γ in mouse macrophages; conditions: previously reported (Honda et al.); read-out: IC50 (level); cited from earlier work
[3] = target: T1, peroxisome proliferator-activated receptor γ (PPARγ) (Homo sapiens, UniProt P37231); conditions: Wang et al., 2000; cited from earlier work
T1 sequence (P37231 1-505): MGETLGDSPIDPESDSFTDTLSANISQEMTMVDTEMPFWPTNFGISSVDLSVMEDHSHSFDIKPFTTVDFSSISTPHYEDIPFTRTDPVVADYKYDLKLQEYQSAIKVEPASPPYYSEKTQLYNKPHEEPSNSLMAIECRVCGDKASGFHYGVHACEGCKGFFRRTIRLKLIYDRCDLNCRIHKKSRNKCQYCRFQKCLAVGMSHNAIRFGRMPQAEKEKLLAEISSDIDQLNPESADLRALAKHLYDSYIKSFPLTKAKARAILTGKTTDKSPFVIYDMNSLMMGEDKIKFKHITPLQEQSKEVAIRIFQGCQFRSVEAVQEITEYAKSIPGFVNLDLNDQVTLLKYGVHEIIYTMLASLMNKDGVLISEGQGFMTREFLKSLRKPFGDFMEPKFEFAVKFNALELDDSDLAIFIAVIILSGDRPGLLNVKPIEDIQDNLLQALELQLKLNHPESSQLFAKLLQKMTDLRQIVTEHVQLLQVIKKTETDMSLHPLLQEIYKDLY

[4] = system: human tumor cell lines, mouse 3T3-L1 fibroblasts, mouse macrophages; conditions: cell culture; previously reported (Suh et al., 1999); cited from earlier work
[5] = SAR on substituents at C-17, Tables 1-3
[6] = Mus musculus, Macrophage; Table 2; NO production induced by IFN-γ, 48 h; tested 0.01 pM-1 μM (10-fold dilutions); average of several separate experiments
[7] = Mus musculus, Macrophage; Table 1; NO production induced by IFN-γ, 48 h; tested 0.01 pM-1 μM (10-fold dilutions); average of several separate experiments
[8] = Mus musculus, Macrophage, 48 h, Table 1; NO production induced by IFN-γ; tested 0.01 pM-1 μM (10-fold dilutions); average of several separate experiments

Compound: Cc1cn(C(=O)[C@]23CCC(C)(C)CC2C2C(=O)C=C4[C@@]5(C)C=C(C#N)C(=O)C(C)(C)[C@@H]5CC[C@@]4(C)[C@]2(C)CC3)cn1 (stereo partly shown) [Compound 10, 1-(2-cyano-3,12-dioxooleana-1,9(11)-dien-28-oyl)-4-methylimidazole]
potency compared with CDDO (SAR statement) [1, 5]: greatest potency

pIC50 [1, 6]: 10.52
Compound: CC1(C)CC[C@]2(C(=O)n3cnc(Br)c3)CC[C@]3(C)C(C(=O)C=C4[C@@]5(C)C=C(C#N)C(=O)C(C)(C)[C@@H]5CC[C@]43C)C2C1 (stereo partly shown) [Compound 15]

pIC50 [1, 6]: 10.00
Compound: Cc1cn(C(=O)[C@]23CCC(C)(C)CC2C2C(=O)C=C4[C@@]5(C)C=C(C#N)C(=O)C(C)(C)[C@@H]5CC[C@@]4(C)[C@]2(C)CC3)c(C)n1 (stereo partly shown) [Compound 13]

pIC50 [1, 7]: 10.00
Compound: C[C@@H]1C[C@H]2[C@@H]3CCC4=CC(=O)C=C[C@]4(C)[C@@]3(F)[C@@H](O)C[C@]2(C)[C@@]1(O)C(=O)CO [Dexamethasone, reference compound]

pIC50 [1, 7]: 11.46
Compound: CC1(C)CC[C@]2(C#N)CC[C@]3(C)[C@H](C(=O)C=C4[C@@]5(C)C=C(C#N)C(=O)C(C)(C)[C@@H]5CC[C@]43C)[C@@H]2C1 [Compound 1, 2-cyano-3,12-dioxooleana-1,9(11)-dien-28-onitrile]
potency compared with CDDO (SAR statement) [1, 5]: much more potent

Compound: COC(=O)[C@]12CCC(C)(C)C[C@H]1[C@H]1C(=O)C=C3[C@@]4(C)C=C(C#N)C(=O)C(C)(C)[C@@H]4CC[C@@]3(C)[C@]1(C)CC2 [CDDO methyl ester]
pIC50 [2]: ~10.00

pIC50 ([1]; Mus musculus, Macrophage; Table 3; NO production induced by IFN-γ, 48 h; tested 0.01 pM-1 μM (10-fold dilutions); average of several separate experiments): 10.30
Compound: CC(=O)OC[C@H]1O[C@@H](OC(=O)[C@]23CCC(C)(C)C[C@H]2[C@H]2C(=O)C=C4[C@@]5(C)C=C(C#N)C(=O)C(C)(C)[C@@H]5CC[C@@]4(C)[C@]2(C)CC3)[C@H](OC(C)=O)C(OC(C)=O)[C@H]1OC(C)=O (stereo partly shown) [Compound 18]

pIC50 [1, 6]: 10.30
Compound: CC1(C)CC[C@]2(C(=O)n3ccnc3-c3ccccc3)CC[C@]3(C)C(C(=O)C=C4[C@@]5(C)C=C(C#N)C(=O)C(C)(C)[C@@H]5CC[C@]43C)C2C1 (stereo partly shown) [Compound 14]

pIC50 [1, 8]: < 4.40
pIC50 ([1]; Mus musculus, Macrophage, 48 h, Table 2; NO production induced by IFN-γ; tested 0.01 pM-1 μM (10-fold dilutions); average of several separate experiments): < 4.40
Compound: CC1(C)CC[C@]2(C(=O)O)CC[C@]3(C)C(=CC[C@@H]4[C@@]5(C)CC[C@H](O)C(C)(C)[C@@H]5CC[C@]43C)[C@@H]2C1 [Oleanolic acid (OA), Oleanolic acid, reference compound]

pIC50 [1, 7]: 10.01
Compound: CC1(C)CC[C@]2(C(N)=O)CC[C@]3(C)[C@H](C(=O)C=C4[C@@]5(C)C=C(C#N)C(=O)C(C)(C)[C@@H]5CC[C@]43C)[C@@H]2C1 [Compound 3]
potency compared with CDDO (SAR statement) [1, 5]: greater potency than CDDO

pIC50 [1, 8]: 9.36
pIC50 ([1]; Mus musculus, Macrophage, 48 h, Table 3; NO production induced by IFN-γ; tested 0.01 pM-1 μM (10-fold dilutions); average of several separate experiments): 9.15
Compound: CC1(C)CC[C@]2(C(=O)O)CC[C@]3(C)[C@H](C(=O)C=C4[C@@]5(C)C=C(C#N)C(=O)C(C)(C)[C@@H]5CC[C@]43C)[C@@H]2C1 [CDDO, 2-cyano-3,12-dioxooleana-1,9(11)-dien-28-oic acid]
ligand for PPARγ [3]: ligand
concentrations at which potencies were found [4]: 10^−6 to 10^−9 M
pIC50 [2]: ~10.00

pIC50 [1, 7]: 10.15
Compound: CC(=O)OC[C@H]1OC(OC(=O)[C@]23CCC(C)(C)CC2C2C(=O)C=C4[C@@]5(C)C=C(C#N)C(=O)C(C)(C)[C@@H]5CC[C@@]4(C)[C@]2(C)CC3)[C@H](OC(C)=O)C(OC(C)=O)[C@@H]1OC(C)=O (stereo partly shown) [Compound 2]

pIC50 [1, 6]: 10.00
Compound: CCc1nccn1C(=O)[C@]12CCC(C)(C)CC1C1C(=O)C=C3[C@@]4(C)C=C(C#N)C(=O)C(C)(C)[C@@H]4CC[C@@]3(C)[C@]1(C)CC2 (stereo partly shown) [Compound 11]

Compound: COC(=O)C12CCC(C)(C)CC1C1C(=O)C=C3C4(C)C=C(C(=O)O)C(=O)C(C)(C)C4CCC3(C)C1(C)CC2 (stereo not shown) [methyl 2-carboxy-3,12-dioxooleana-1,9(11)-dien-28-oate]
pIC50 [2]: ~10.00

pIC50 [1, 6]: 10.70
Compound: CCCc1nccn1C(=O)[C@]12CCC(C)(C)CC1C1C(=O)C=C3[C@@]4(C)C=C(C#N)C(=O)C(C)(C)[C@@H]4CC[C@@]3(C)[C@]1(C)CC2 (stereo partly shown) [Compound 12]
